In patent publication US9018383B2, “Acylamino-substituted cyclic carboxylic acid derivatives and their use as pharmaceuticals” (Sanofi, priority 2009, dated 2015) one finds IC50 data, which are given here for 13 compounds.

This assay deals with human Edg-2 receptor (Homo sapiens, UniProt Q92633). Put plainly: Determination of Edg-2 receptor inhibition by FLIPR measurements (LPA-mediated calcium liberation). In kind it is cell-based. The settings on record: CHO cells overexpressing human Edg-2 receptor, LPA 100 nM, fluo-4 calcium fluorescence; read-out: Inhibitory concentrations IC50 for inhibition of the Edg-2 receptor. In short, it runs like this: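 CHO cells stably overexpressing human Edg-2, loaded with fluo-4 AM, were pre-incubated ~5 min with compound (≤0.3% DMSO), then stimulated with 100 nM LPA 18:1 in HBSS/HEPES/probenecid, pH 7.5. Peak calcium fluorescence over ~3 min, baseline-corrected, versus DMSO gave % inhibition; IC50 from triplicates.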
Sequence of human Edg-2 receptor (Q92633 whole entry): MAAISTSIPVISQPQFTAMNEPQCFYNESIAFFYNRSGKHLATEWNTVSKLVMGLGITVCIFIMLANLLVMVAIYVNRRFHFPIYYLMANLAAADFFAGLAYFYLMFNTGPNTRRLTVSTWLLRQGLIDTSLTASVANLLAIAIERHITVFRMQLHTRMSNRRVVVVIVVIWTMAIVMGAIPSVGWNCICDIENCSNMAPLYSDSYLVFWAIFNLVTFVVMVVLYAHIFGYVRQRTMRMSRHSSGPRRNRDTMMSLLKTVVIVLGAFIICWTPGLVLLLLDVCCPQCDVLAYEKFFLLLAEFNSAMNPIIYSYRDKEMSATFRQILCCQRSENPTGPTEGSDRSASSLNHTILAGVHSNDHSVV
For `COCCOc1ccc(C(=O)NC2(C(=O)O)CCCCCC2)cc1OCCc1cccc(C)c1` [Example 116, 1-[4-(2-Methoxy-ethoxy)-3-(2-m-tolyl-ethoxy)-benzoylamino]-cycloheptanecarboxylic acid], the IC50 fell in the range of 1000 to 30000 nM.

As for `COCCOc1ccc(C(=O)N[C@]2(C(=O)O)CC[C@@H](C)CC2)cc1OCCc1cccc(C)c1` [Example 117, trans-1-[4-(2-Methoxy-ethoxy)-3-(2-m-tolyl-ethoxy)-benzoylamino]-4-methyl-cyclohexane-carboxylic acid], the IC50 was 1000 to 30000 nM.

On to `COCCOc1ccc(C(=O)N[C@]2(C(=O)O)CC[C@H](C)CC2)cc1OCCc1cccc(C)c1` [Example 118, cis-1-[4-(2-Methoxy-ethoxy)-3-(2-m-tolyl-ethoxy)-benzoylamino]-4-methyl-cyclohexane-carboxylic acid], for which the IC50 lay in the range of 1000 to 30000 nM.

For the compound `C[C@H]1CC[C@](NC(=O)c2ccc(OCCO)c(OCCc3cccc(Cl)c3)c2)(C(=O)O)CC1` [Example 119, cis-1-[3-[2-(3-Chloro-phenyl)-ethoxy]-4-(2-hydroxy-ethoxy)-benzoylamino]-4-methyl-cyclohexanecarboxylic acid], the IC50 is below 100 nM.

Consider `O=C(NC1(C(=O)O)CCCCCC1)c1ccc(OCCO)c(OCCc2cccc(Cl)c2)c1` [Example 121, 1-[3-[2-(3-Chloro-phenyl)-ethoxy]-4-(2-hydroxy-ethoxy)-benzoylamino]-cycloheptane-carboxylic acid], for which the IC50 was 100 to 1000 nM.

In the case of `Cc1cccc(CCOc2cc(C(=O)N[C@]3(C(=O)O)CC[C@@H](C)CC3)ccc2OCCO)c1` [Example 122, trans-1-[4-(2-Hydroxy-ethoxy)-3-(2-m-tolyl-ethoxy)-benzoylamino]-4-methyl-cyclohexanecarboxylic acid], the IC50 is below 100 nM.

For the compound `Cc1cccc(CCOc2cc(C(=O)N[C@]3(C(=O)O)CC[C@H](C)CC3)ccc2OCCO)c1` [Example 123, cis-1-[4-(2-Hydroxy-ethoxy)-3-(2-m-tolyl-ethoxy)-benzoylamino]-4-methyl-cyclohexanecarboxylic acid], the IC50 is below 100 nM.

For the compound `Cc1cccc(CCOc2cc(C(=O)NC3(C(=O)O)CCCCCC3)ccc2OCCO)c1` [Example 124, 1-[4-(2-Hydroxy-ethoxy)-3-(2-m-tolyl-ethoxy)-benzoylamino]-cycloheptane-carboxylic acid], the IC50 is 100 to 1000 nM.

In the case of `CC[C@H]1CC[C@](NC(=O)c2ccc(C(F)(F)F)c(-c3ccc(OC)c(Cl)c3)c2)(C(=O)O)CC1` [Example 125, cis-1-[(3′-Chloro-4′-methoxy-6-trifluoromethyl-biphenyl-3-carbonyl)-amino]-4-ethyl-cyclohexanecarboxylic acid], the IC50 was below 100 nM.

With `CC[C@H]1CC[C@](NC(=O)c2ccc(OC)c(OCCc3cccc(C4COC4)c3)c2)(C(=O)O)CC1` [Example 127, cis-4-Ethyl-1-{4-methoxy-3-[2-(3-oxetan-3-yl-phenyl)-ethoxy]-benzoylamino}-cyclohexanecarboxylic acid], the IC50 was below 100 nM.

On to `COc1ccc(C(=O)N[C@]2(C(=O)O)CC[C@@H](C)CC2)cc1OCCc1cccc(C2COC2)c1` [Example 128, trans-1-{4-Methoxy-3-[2-(3-oxetan-3-yl-phenyl)-ethoxy]-benzoylamino}-4-methyl-cyclohexanecarboxylic acid], for which the IC50 was 100 to 1000 nM.

With `COc1ccc(C(=O)NC2(C(=O)O)CCCCCC2)cc1OCCc1cccc(C2COC2)c1` [Example 129, 1-{4-Methoxy-3-[2-(3-oxetan-3-yl-phenyl)-ethoxy]-benzoylamino}-cycloheptanecarboxylic acid], the IC50 was 100 to 1000 nM.

`CC[C@H]1CC[C@](NC(=O)c2ccc(C3COC3)c(OCCc3cccc(C)c3)c2)(C(=O)O)CC1` [Example 130, cis-4-Ethyl-1-[4-oxetan-3-yl-3-(2-m-tolyl-ethoxy)-benzoylamino]-cyclohexanecarboxylic acid]: the IC50 was below 100 nM.
